Key:
MV4-11 cells = assay: Antiproliferative activity assay (ATPLite), MV4-11; assay type: cell-based; conditions: Homo sapiens, MV4-11 (AML, FLT3-ITD), 72 h, read-out: Inhibition of proliferation (EC50) MV411
Experimental: (§1) Cell lines MV4-11 and MOLM-13 are grown according to conditions depicted in Table 2 following the provider recommendations.
(§2) Assays are being run into 96-well plates. Cells are passaged at Day 0, seeded at Day 1 and added with increasing quantities of the compounds to evaluate. Plates are incubated for 72 h at 37° C. under a 5% CO2 atmosphere.
(§3) Half-logarithmic dilutions from compounds stock solutions in DMSO (Sigma #D8414) were done in order to obtain 0.1% DMSO solutions.
(§4) Cellular viability is measured at Day 4 with the ATPLite (Perkin Elmer #6016947) kit.

JAK3 = target: T1, JAK3 (Homo sapiens, UniProt P52333); assay: Lanthascreen TR-FRET enzymatic assay, JAK3; assay type: binding; conditions: recombinant JAK3, 1 hour at 25° C., 1% DMSO; read-out: Enzymology (IC50) JAK3
T1 construct: purchased Life Technologies PV3855
T1 sequence (P52333 1-1124): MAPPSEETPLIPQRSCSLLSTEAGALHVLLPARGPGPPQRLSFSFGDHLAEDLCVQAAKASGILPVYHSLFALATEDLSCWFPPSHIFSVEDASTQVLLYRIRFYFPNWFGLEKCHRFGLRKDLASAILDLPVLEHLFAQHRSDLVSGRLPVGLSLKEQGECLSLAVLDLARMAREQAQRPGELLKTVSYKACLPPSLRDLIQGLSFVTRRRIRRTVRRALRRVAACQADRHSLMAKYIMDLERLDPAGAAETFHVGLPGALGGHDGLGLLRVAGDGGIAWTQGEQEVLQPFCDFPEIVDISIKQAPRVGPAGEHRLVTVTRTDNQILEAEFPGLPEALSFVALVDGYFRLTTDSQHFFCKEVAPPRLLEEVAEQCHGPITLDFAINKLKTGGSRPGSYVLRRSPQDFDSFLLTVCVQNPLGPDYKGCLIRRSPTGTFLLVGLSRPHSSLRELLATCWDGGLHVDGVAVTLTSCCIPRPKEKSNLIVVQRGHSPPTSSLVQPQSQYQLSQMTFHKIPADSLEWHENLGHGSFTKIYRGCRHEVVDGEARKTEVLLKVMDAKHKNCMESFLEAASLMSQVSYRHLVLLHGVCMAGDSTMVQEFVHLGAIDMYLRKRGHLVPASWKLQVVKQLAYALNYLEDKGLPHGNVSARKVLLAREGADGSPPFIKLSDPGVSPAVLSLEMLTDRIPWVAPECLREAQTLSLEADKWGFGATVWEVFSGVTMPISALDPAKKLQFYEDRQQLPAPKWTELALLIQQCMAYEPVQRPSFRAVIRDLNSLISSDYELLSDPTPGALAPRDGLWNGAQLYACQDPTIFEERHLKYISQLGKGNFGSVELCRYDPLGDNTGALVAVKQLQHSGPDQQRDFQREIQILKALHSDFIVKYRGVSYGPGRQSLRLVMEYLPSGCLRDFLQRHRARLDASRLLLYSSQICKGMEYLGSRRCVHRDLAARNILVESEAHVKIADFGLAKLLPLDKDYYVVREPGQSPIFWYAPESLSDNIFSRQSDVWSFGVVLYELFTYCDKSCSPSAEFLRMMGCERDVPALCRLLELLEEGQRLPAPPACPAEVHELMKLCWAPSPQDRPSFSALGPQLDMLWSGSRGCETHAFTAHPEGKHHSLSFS
Experimental: (§5) Recombinant FLT3 (#PV3182), JAK2 (#PV4210) and JAK3 (#PV3855) enzymes were purchased from Life Technologies. FLT3-ITD (#0778-0000-1) and FLT3^D835Y (#14-610) were respectively purchased from Proquinase and Merck Millipore.
(§6) The assays were conducted in 384-well plates based on Life Technologies Lanthascreen® TR-FRET methodologies.
JAK3 assays: 15 nM of […], 3 nM of the 236 kinase tracker (Life Technologies #PV5592) and 6 nM of the Europium-tagged anti-GST Lanthascreen® antibody are mixed into 15 μL total volume reaction mixture.
(§7) IC50s were determined from a 8-point dose-response curve spanning a >1000 fold concentration range using a 10 mM compound solution stock into pure DMSO (Sigma #D8418). The overall DMSO concentrations of tested solutions were 1%.
(§8) IC50s were generated with the software Prism (Graphpad).

MOLM-13 cells = assay: Antiproliferative activity assay (ATPLite), MOLM-13; assay type: cell-based; conditions: Homo sapiens, MOLM-13 (AML, FLT3-ITD), 72 h, read-out: Inhibition of proliferation (EC50) MOLM13
Experimental: as §1, §2, §3, §4

JAK2 = target: T2, JAK2 (Homo sapiens, UniProt O60674); assay: Lanthascreen TR-FRET enzymatic assay, JAK2; assay type: binding; conditions: recombinant JAK2, 1 hour at 25° C., 1% DMSO; read-out: Enzymology (IC50) JAK2
T2 construct: purchased Life Technologies PV4210
Experimental: as §5, §6
JAK2 assays: 15 nM of JAK2, 150 nM of the 236 kinase tracker (Life Technologies #PV5592) and 6 nM of the Europium-tagged anti-GST Lanthascreen® antibody are mixed into 15 μL total volume reaction mixture.
as §7, §8

T2 sequence (O60674 whole entry): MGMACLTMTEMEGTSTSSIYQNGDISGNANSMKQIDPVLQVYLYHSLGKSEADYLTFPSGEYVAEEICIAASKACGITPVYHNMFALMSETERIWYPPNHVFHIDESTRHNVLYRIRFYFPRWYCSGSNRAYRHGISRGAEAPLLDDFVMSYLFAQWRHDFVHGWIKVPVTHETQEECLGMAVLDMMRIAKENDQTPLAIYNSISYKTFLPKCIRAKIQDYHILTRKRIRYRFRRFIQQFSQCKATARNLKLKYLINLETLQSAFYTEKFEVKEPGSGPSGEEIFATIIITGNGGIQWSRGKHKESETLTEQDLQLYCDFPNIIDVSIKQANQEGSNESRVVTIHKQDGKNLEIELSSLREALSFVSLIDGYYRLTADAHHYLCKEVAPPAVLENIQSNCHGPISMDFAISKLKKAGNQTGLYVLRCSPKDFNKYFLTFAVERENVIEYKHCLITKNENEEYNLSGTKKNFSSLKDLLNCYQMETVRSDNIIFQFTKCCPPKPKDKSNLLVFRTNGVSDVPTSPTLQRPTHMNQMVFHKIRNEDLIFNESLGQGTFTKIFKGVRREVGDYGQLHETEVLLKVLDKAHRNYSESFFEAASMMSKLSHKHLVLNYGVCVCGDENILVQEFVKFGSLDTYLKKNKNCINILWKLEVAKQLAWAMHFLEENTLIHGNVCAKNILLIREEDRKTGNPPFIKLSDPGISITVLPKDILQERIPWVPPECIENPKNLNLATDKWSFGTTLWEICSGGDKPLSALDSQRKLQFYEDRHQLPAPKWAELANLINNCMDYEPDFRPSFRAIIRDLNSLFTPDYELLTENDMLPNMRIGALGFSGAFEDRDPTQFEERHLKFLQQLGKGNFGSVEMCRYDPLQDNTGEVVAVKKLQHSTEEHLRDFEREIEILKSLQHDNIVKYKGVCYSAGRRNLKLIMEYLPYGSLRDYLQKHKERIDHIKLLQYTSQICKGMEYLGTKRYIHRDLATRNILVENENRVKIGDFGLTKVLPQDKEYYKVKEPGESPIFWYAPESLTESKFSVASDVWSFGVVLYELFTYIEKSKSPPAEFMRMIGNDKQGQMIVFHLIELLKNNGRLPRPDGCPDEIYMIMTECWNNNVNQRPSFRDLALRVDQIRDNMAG

| SMILES | EC50 (MV4-11 cells) [nM] | IC50 (JAK3) [nM] | EC50 (MOLM-13 cells) [nM] | IC50 (JAK2) [nM] |
| --- | --- | --- | --- | --- |
| Cn1c(=O)c2cc(N)ccc2c2nc(Nc3cccc(N)c3)ncc21 [Compound C2, 8-amino-2-((3-aminophenyl)amino)-5-methylpyrimido[5,4-c]isoquinolin-6(5H)-one] | 25 to 100 | 25 to 100 | 25 to 100 | 25 to 100 |
| CN1CCN(c2ccc(Nc3ncc4c(n3)c3ccc(N)cc3c(=O)n4C)cc2)CC1 [Compound C4, 8-amino-5-methyl-2-((4-(4-methylpiperazin-1-yl)phenyl)amino)pyrimido[5,4-c]isoquinolin-6(5H)-one] | < 25 | 25 to 100 | < 25 | 100 to 1000 |
| CN1CCN(c2cccc(Nc3ncc4c(n3)c3ccc(N)cc3c(=O)n4C)c2)CC1 [Compound C6, 8-amino-5-methyl-2-((3-(4-methylpiperazin-1-yl)phenyl)amino)pyrimido[5,4-c]isoquinolin-6(5H)-one] | 25 to 100 | 25 to 100 | 25 to 100 | 100 to 1000 |
| COc1cc2c(cc1N)c(=O)n(C)c1cnc(Nc3ccc(N4CCN(C)CC4)cc3)nc21 [Compound C10, 8-amino-9-methoxy-5-methyl-2-((4-(4-methylpiperazin-1-yl)phenyl)amino) pyrimido[5,4-c]isoquinolin-6(5H)-one] | < 25 | 25 to 100 | 100 to 1000 | 100 to 1000 |
| Cn1c(=O)c2cc(N)ccc2c2nc(Nc3ccc(F)c(N)c3)ncc21 [Compound C22, 8-amino-2-((3-amino-4-fluorophenyl)amino)-5-methylpyrimido[5,4-c]isoquinolin-6(5H)-one] | 100 to 1000 | 25 to 100 | 100 to 1000 | 100 to 1000 |
| COc1cc2c(cc1N)c(=O)n(C)c1cnc(Nc3cc(N)cc(F)c3)nc21 [Compound C26, 8-amino-2-((3-amino-5-fluorophenyl)amino)-9-methoxy-5-methylpyrimido [5,4-c]isoquinolin-6(5H)-one] | 25 to 100 | 100 to 1000 | 25 to 100 | 100 to 1000 |
| COc1cc2c(cc1N)c(=O)n(C)c1cnc(Nc3ccc(F)c(N)c3)nc21 [Compound C28, 8-amino-2-((3-amino-4-fluorophenyl)amino)-9-methoxy-5-methylpyrimido [5,4-c]isoquinolin-6(5H)-one] | 25 to 100 | 100 to 1000 | 100 to 1000 | 100 to 1000 |
| Cn1c(=O)c2cc(N)ccc2c2nc(Nc3ccc(OCCN4CCCC4)cc3)ncc21 [Compound C34, 8-amino-5-methyl-2-((4-(2-(pyrrolidin-1-yl)ethoxy)phenyl)amino)pyrimido[5,4-c]isoquinolin-6(5H)-one] | 100 to 1000 | 100 to 1000 | 100 to 1000 | 100 to 1000 |
| COc1cc2c(cc1N)c(=O)n(C)c1cnc(Nc3ccc(OCCN4CCCC4)cc3)nc21 [Compound C42, 8-amino-9-methoxy-5-methyl-2-((4-(2-(pyrrolidin-1-yl)ethoxy)phenyl)amino) pyrimido[5,4-c]isoquinolin-6(5H)-one] | 100 to 1000 | 100 to 1000 | 100 to 1000 | 100 to 1000 |

From patent publication US9944641B2, “Isoquinolinone derivatives useful in the treatment of cancer” (PIERRE FABRE MEDICAMENT, priority 2014, dated 2018)
